# Experimental data from ChEMBL document CHEMBL1131457, “cis-[PtCl2(4,7-H-5-methyl-7-oxo[1,2,4]triazolo[1,5-a]pyrimidine)2]: a sterically restrictive new cisplatin analogue. Reaction kinetics with model nucleobases, DNA interaction studies, antitumor activity, and structure-activity relationships” (J Med Chem, 1998).
# Columns and labels:
# Type in all cases: functional, cell-based
# MCF7 [1] = assay: Dose at which compound exhibits cytotoxicity in the MCF-7 cell line.; details: Homo sapiens
# A121 [2] = assay: Cytotoxic effect (tumor cell growth inhibition) on the human cell line A121 ovarian carcinoma at the dose of […]
# A121 [3] = assay: Dose at which compound exhibits cytotoxicity in the A121 ovarian carcinoma cell line.; details: Homo sapiens
# MCF7 [4] = assay: Cytotoxic effect (tumor cell growth inhibition) on the human cell line MCF-7 breast carcinoma at a dose of […]
# A121 [5] = assay: Cytotoxic effect (tumor cell growth inhibition) on the human cell line A121 ovarian carcinoma at the dose of […]
substance,measurement,setting,value
cis-[PtCl2(Hmtpo-N3)2].2H2O,ID50,MCF7 [1],33.4 µM
same,Cytotoxic effect,A121 [2],84%
same,ID50,A121 [3],14.3 µM
same,Cytotoxic effect,MCF7 [4],54.8%
same,Cytotoxic effect,A121 [5],53%
